# Earlier results, collected in patent publication US20030114534A1, “Pharmaceutical preparation for apthous ulcers” (priority 2001, published 2003).
# System: apthous lesions
# Settings: applied locally, 250 mg. in 10 ml. of water, three times a day
compound,measurement,value
CN(C)[C@@H]1C(O)=C(C(N)=O)C(=O)[C@@]2(O)C(O)=C3C(=O)c4c(O)ccc(Cl)c4[C@@](C)(O)[C@H]3C[C@@H]12 [Aureomycin],analgesic effect lasting,one-half to two
